Data taken from paper PMC6749325, “Hybrids of Cinchona Alkaloids and Bile Acids as Antiparasitic Agents Against Trypanosoma cruzi” (Molecules, 2019).
In brackets after ≈: the same amount, converted by molar mass.

Tested on: NRK cells
Experiment: NRK cell IC50 estimation (cytotoxicity, crystal violet)
Type: cell-based
Conditions: 48 h incubation
Protocol: (§1) The NRK and Vero cell lines were routinely maintained in DMEM (Gibco) supplemented with 10% SFB (Natocor) and Penicillin/Streptomicin (100 Units/0.1mg/mL, Sigma) at 37 °C and 5% CO2 atmosphere. The trypomatigotes of T. cruzi strains CL Brener, Y, and RA were routinely maintained in Vero cells cultured in DMEM supplemented with 4% SFB and Penicillin/Streptomicin. The trypomastigotes of each strain were purified from infected Vero cells supernatants and used in the different assays.
1 × 10^5/mL NRK cells were grown overnight in a 96 multi-well plate. The culture medium was replaced by a culture medium containing increasing concentrations of hybrids, control drugs or vehicles, and cells incubated at 37 °C and 5% CO2 for 48 h. Next, cells were washed, fixed for 10 min with cold methanol (Sintorgan), and stained with violet crystal (Sigma 0.5% in methanol). After an exhaustive wash, cells were dried overnight. 10% acetic acid (Biopack) was added to each well, and the absorbance measured at 600 nm. Similarly, a standard curve was prepared (absorbance vs. increasing concentrations of NRK cells) to estimate the NRK IC50 using Graphpad Prism.

| Structure (SMILES) | NRK Cells IC50 [µg/mL] |
| --- | --- |
| C=CC1CN2CCC1CC2C(O)c1cc(CCC(C)C2CCC3C4C(O)CC5CC(O)CCC5(C)C4CCC23C)nc2ccccc12 (stereo not drawn) [Hybrid 5f] | 4.02 ± 0.55 |
| C=CC1CN2CCC1CC2C(O)c1cc(CCC(C)C2CCC3C4CCC5CC(O)CCC5(C)C4CCC23C)nc2ccccc12 (stereo not drawn) [Hybrid 5g] | 27.11 ± 4.54 |
| C=CC1CN2CCC1CC2C(O)c1cc(CCC(C)C2CCC3C4C(O)CC5CC(O)CCC5(C)C4CCC23C)nc2ccccc12 (stereo not drawn) [Hybrid 5h] | 0.67 ± 0.05 |

Same assay, conditions: Rattus norvegicus, NRK, 48 h, 48 h incubation

| Structure (SMILES) | IC50 [µg/mL] |
| --- | --- |
| C=CC1CN2CCC1CC2C(O)c1cc(CCC(C)C2CCC3C4C(OC(C)=O)CC5CC(OC(C)=O)CCC5(C)C4CCC23C)nc2ccc(OC)cc12 (stereo not drawn) [Hybrid 4b] | 3.91 ± 0.29 (≈ 5.18 µM) |
| C=CC1CN2CCC1CC2C(O)c1cc(CCC(C)C2CCC3C4CCC5CC(OC(C)=O)CCC5(C)C4CCC23C)nc2ccccc12 (stereo not drawn) [Hybrid 4e] | 7.5 ± 0.29 (≈ 11.2 µM) |
| C=CC1CN2CCC1CC2C(O)c1cc(CCC(C)C2CCC3C4C(OC(C)=O)CC5CC(OC(C)=O)CCC5(C)C4CCC23C)nc2ccccc12 (stereo not drawn) [Hybrid 4f] | 6.69 ± 1.51 (≈ 9.23 µM) |
| C=CC1CN2CCC1CC2C(O)c1cc(CCC(C)C2CCC3C4CCC5CC(O)CCC5(C)C4CCC23C)nc2ccc(OC)cc12 (stereo not drawn) [Hybrid 5c] | > 11 |
| C=CC1CN2CCC1CC2C(O)c1cc(CCC(C)C2CCC3C4CCC5CC(O)CCC5(C)C4CCC23C)nc2ccccc12 (stereo not drawn) [Hybrid 5e] | > 30 |

Tested on: T. cruzi Y (DTU II) trypomastigotes
Experiment: Trypomastigote IC50 estimation, Y strain
Type: cell-based, Trypanosoma cruzi
Conditions: 24 h incubation
Protocol: as §1
(§2) 2 × 10^6/mL trypomastigotes were incubated with different concentrations of the hybrids, control drug or vehicle, by triplicate at 37 °C and 5% CO2 for 24 h. Next, trypomastigotes were counted in a Neubauer chamber. The IC50 ± SD (n = 3) were estimated using the “Dose–Response” module in Graphpad Prism.

| Structure (SMILES) | T. cruzi Y (DTU II) IC50 [µg/mL] |
| --- | --- |
| C=CC1CN2CCC1CC2C(O)c1cc(CCC(C)C2CCC3C4C(OC(C)=O)CC5CC(OC(C)=O)CCC5(C)C4CCC23C)nc2ccccc12 (stereo not drawn) [Hybrid 4f] | 0.50 ± 0.03 |

Same assay, conditions: Trypanosoma cruzi, 24 h, 24 h incubation

| Structure (SMILES) | IC50 [µg/mL] |
| --- | --- |
| O=C(Cn1ccnc1[N+](=O)[O-])NCc1ccccc1 [Bz, benznidazole, reference compound] | ≥ 15 |
| C=CC1CN2CCC1CC2C(O)c1cc(CCC(C)C2CCC3C4CCC5CC(O)CCC5(C)C4CCC23C)nc2ccc(OC)cc12 (stereo not drawn) [Hybrid 5c] | ≥ 2 |
| C=CC1CN2CCC1CC2C(O)c1cc(CCC(C)C2CCC3C4C(O)CC5CC(O)CCC5(C)C4CCC23C)nc2ccccc12 (stereo not drawn) [Hybrid 5f] | 0.65 ± 0.07 (≈ 1.01 µM) |
| C=CC1CN2CCC1CC2C(O)c1cc(CCC(C)C2CCC3C4CCC5CC(O)CCC5(C)C4CCC23C)nc2ccccc12 (stereo not drawn) [Hybrid 5g] | 3.25 ± 0.67 (≈ 5.2 µM) |

Tested on: T. cruzi CL Brener trypomastigotes
Experiment: Trypomastigote IC50 estimation, CL Brener strain
Type: cell-based, Trypanosoma cruzi
Conditions: IC50NRK/IC50 parasite, CL Brener trypomastigotes
Protocol: as §1, §2

| Structure (SMILES) | Selectivity NRK/T. cruzi (SI) |
| --- | --- |
| C=CC1CN2CCC1CC2C(O)c1cc(CCC(C)C2CCC3C4C(OC(C)=O)CC5CC(OC(C)=O)CCC5(C)C4CCC23C)nc2ccc(OC)cc12 (stereo not drawn) [Hybrid 4b] | 4.89 |
| C=CC1CN2CCC1CC2C(O)c1cc(CCC(C)C2CCC3C4CCC5CC(OC(C)=O)CCC5(C)C4CCC23C)nc2ccccc12 (stereo not drawn) [Hybrid 4e] | 6.46 |
| C=CC1CN2CCC1CC2C(O)c1cc(CCC(C)C2CCC3C4C(OC(C)=O)CC5CC(OC(C)=O)CCC5(C)C4CCC23C)nc2ccccc12 (stereo not drawn) [Hybrid 4f] | 13.04 |
| C=CC1CN2CCC1CC2C(O)c1cc(CCC(C)C2CCC3C4CCC5CC(O)CCC5(C)C4CCC23C)nc2ccccc12 (stereo not drawn) [Hybrid 5g] | 10.58 |
| C=CC1CN2CCC1CC2C(O)c1cc(CCC(C)C2CCC3C4C(O)CC5CC(O)CCC5(C)C4CCC23C)nc2ccccc12 (stereo not drawn) [Hybrid 5h] | 2.23 |

Same assay, conditions: Trypanosoma cruzi, 24 h, trypomastigotes, 24 h incubation, IC50 ± SD (n = 3)

| Structure (SMILES) | IC50 [µg/mL] |
| --- | --- |
| O=C(Cn1ccnc1[N+](=O)[O-])NCc1ccccc1 [Bz, benznidazole, reference compound] | 2.5 ± 0.01 (≈ 9.61 µM) |
| C=CC1CN2CCC1CC2C(O)c1cc(CCC(C)C2CCC3C4C(OC(C)=O)CC5CC(OC(C)=O)CCC5(C)C4CCC23C)nc2ccc(OC)cc12 (stereo not drawn) [Hybrid 4b] | 0.8 ± 0.13 (≈ 1.06 µM) |
| C=CC1CN2CCC1CC2C(O)c1cc(CCC(C)C2CCC3C4CCC5CC(OC(C)=O)CCC5(C)C4CCC23C)nc2ccccc12 (stereo not drawn) [Hybrid 4e] | 1.16 ± 0.15 (≈ 1.74 µM) |
| C=CC1CN2CCC1CC2C(O)c1cc(CCC(C)C2CCC3C4C(OC(C)=O)CC5CC(OC(C)=O)CCC5(C)C4CCC23C)nc2ccccc12 (stereo not drawn) [Hybrid 4f] | 0.51 ± 0.06 (≈ 0.703 µM) |
| C=CC1CN2CCC1CC2C(O)c1cc(CCC(C)C2CCC3C4CCC5CC(O)CCC5(C)C4CCC23C)nc2ccccc12 (stereo not drawn) [Hybrid 5e] | 3.96 ± 2.69 (≈ 6.34 µM) |
| C=CC1CN2CCC1CC2C(O)c1cc(CCC(C)C2CCC3C4C(O)CC5CC(O)CCC5(C)C4CCC23C)nc2ccccc12 (stereo not drawn) [Hybrid 5f] | 0.34 ± 0.03 (≈ 0.53 µM) |

Same assay, conditions: trypomastigotes, 24 h incubation, IC50 ± SD (n = 3)

| Structure (SMILES) | T. cruzi CL Brener IC50 [µg/mL] |
| --- | --- |
| C=CC1CN2CCC1CC2C(O)c1cc(CCC(C)C2CCC3C4CCC5CC(O)CCC5(C)C4CCC23C)nc2ccc(OC)cc12 (stereo not drawn) [Hybrid 5c] | 0.78 ± 0.11 |
| C=CC1CN2CCC1CC2C(O)c1cc(CCC(C)C2CCC3C4CCC5CC(O)CCC5(C)C4CCC23C)nc2ccccc12 (stereo not drawn) [Hybrid 5g] | 2.56 ± 0.58 |
| C=CC1CN2CCC1CC2C(O)c1cc(CCC(C)C2CCC3C4C(O)CC5CC(O)CCC5(C)C4CCC23C)nc2ccccc12 (stereo not drawn) [Hybrid 5h] | 0.30 ± 0.00 |

Tested on: trypomastigotes of the Y strain released from infected NRK cells
Experiment: Trypomastigote release assay
Type: cell-based, Trypanosoma cruzi
Conditions: 72 hours of treatment then drug-free medium, vs non-treated control
Text: To fully eliminate the intracellular parasite, a trypanocidal drug action is ideally desired. For trypanostatic drugs, a longer chemotherapy is required to allow the elimination of the intracellular parasite, since the anti-parasitic effect could be reversed upon removal of the drug. In order to characterize the antiparasitic features of the hybrids, our strategy was to remove the hybrids from the medium of infected NRK cells and let the infection develop. In this approach, after the two hour infection of NRK cells with trypomastigotes of the Y strain, compounds were added and left for 72 hours before being replaced with fresh medium without drugs. Six days post infection, the trypomastigotes released to the supernatant were quantified. […]
NRK cells were cultured and treated as described in Section 4.1. […] At day 6 pi, the released trypomastigotes in the supernatant of infected were counted using a Neubauer chamber.
In all cases, 3 independent experiments were done by triplicate. […] The mean ± SD of amastigotes/100 cells or trypomastigote released were calculated and analyzed with one-way ANOVA with Dunnett posttest performed with Graphpad Prism software.

| Structure (SMILES) | Trypomastigote count in the supernatant of infected cells at day six post infection |
| --- | --- |
| C=CC1CN2CCC1CC2C(O)c1cc(CCC(C)C2CCC3C4C(OC(C)=O)CC5CC(OC(C)=O)CCC5(C)C4CCC23C)nc2ccccc12 (stereo not drawn) [Hybrid 4f] | significantly lower than non-treated control |
| C=CC1CN2CCC1CC2C(O)c1cc(CCC(C)C2CCC3C4C(O)CC5CC(O)CCC5(C)C4CCC23C)nc2ccccc12 (stereo not drawn) [Hybrid 5f] | significantly lower than non-treated control |

Tested on: intracellular amastigotes of the Y strain
Experiment: Amastigote count in infected NRK cells
Type: cell-based, Trypanosoma cruzi
Conditions: hybrid at trypomastigote IC50 for the Y strain, 48 h, compared to untreated infected cells
Text: Not only the genetic diversity among strains should be taken into account while searching for new drugs. Differential susceptibility of the different life cycle stages of the parasite within the same strain [18] should be also considered. In this regard, Bz and Nf effectiveness against axenic epimastigotes and the intracellular stages of T. cruzi have been already reported. […] More importantly, given that in the chronic phase of Chagas disease, current chemotherapy is not efficient and that parasitemia is usually low, performing new drug screenings on the intracellular replicative stage of the parasite appears to be the better approach. To confirm their anti-parasitic activity, nine of the hybrids were evaluated against intracellular amastigotes of the Y strain at the IC50 found for trypomastigotes of the same strain. Briefly, trypomastigotes were incubated with NRK cells and left to infect for two hours. […] Forty-eight hours post infection, cells were fixed and stained, and amastigotes/100 cells were calculated.
Infections were performed as previously described. […] After 48 h of incubation, cells were fixed with 4% formalin, stained with DAPI and photographed in a fluorescence microscope (Olympus). The amastigotes/100 cells were determined counting 1000 cells from each well (3000 cells/compound) using the ImageJ cell counter plugin. […]

| Structure (SMILES) | Effect on intracellular amastigotes (amastigotes/100 cells) |
| --- | --- |
| C=CC1CN2CCC1CC2C(O)c1cc(CCC(C)C2CCC3C4C(OC(C)=O)CC5CC(OC(C)=O)CCC5(C)C4CCC23C)nc2ccccc12 (stereo not drawn) [Hybrid 4f] | significant reduction in intracellular amastigotes |
| C=CC1CN2CCC1CC2C(O)c1cc(CCC(C)C2CCC3C4C(O)CC5CC(O)CCC5(C)C4CCC23C)nc2ccccc12 (stereo not drawn) [Hybrid 5f] | significant reduction in intracellular amastigotes |

Tested on: T. cruzi RA (DTU VI) trypomastigotes
Experiment: Trypomastigote IC50 estimation, RA strain
Type: cell-based, Trypanosoma cruzi
Conditions: 24 h incubation
Protocol: as §1, §2

| Structure (SMILES) | T. cruzi RA (DTU VI) IC50 [µg/mL] |
| --- | --- |
| C=CC1CN2CCC1CC2C(O)c1cc(CCC(C)C2CCC3C4C(OC(C)=O)CC5CC(OC(C)=O)CCC5(C)C4CCC23C)nc2ccccc12 (stereo not drawn) [Hybrid 4f] | 0.25 ± 0.10 |

Same assay, conditions: Trypanosoma cruzi, 24 h, 24 h incubation

| Structure (SMILES) | IC50 [µg/mL] |
| --- | --- |
| O=C(Cn1ccnc1[N+](=O)[O-])NCc1ccccc1 [Bz, benznidazole, reference compound] | 2.5 ± 0.32 (≈ 9.61 µM) |
| C=CC1CN2CCC1CC2C(O)c1cc(CCC(C)C2CCC3C4CCC5CC(O)CCC5(C)C4CCC23C)nc2ccc(OC)cc12 (stereo not drawn) [Hybrid 5c] | 0.79 ± 0.19 (≈ 1.21 µM) |
| C=CC1CN2CCC1CC2C(O)c1cc(CCC(C)C2CCC3C4C(O)CC5CC(O)CCC5(C)C4CCC23C)nc2ccccc12 (stereo not drawn) [Hybrid 5f] | 0.31 ± 0.1 (≈ 0.484 µM) |
| C=CC1CN2CCC1CC2C(O)c1cc(CCC(C)C2CCC3C4CCC5CC(O)CCC5(C)C4CCC23C)nc2ccccc12 (stereo not drawn) [Hybrid 5g] | 3.03 ± 0.24 (≈ 4.85 µM) |

Tested on: T. brucei
Experiment: not given
Parameters: method as in PMID 23816880
Conditions: compared with the commercial drug suramin; cited from earlier work

| Structure (SMILES) | trypanocidal activity against T. brucei, IC50 |
| --- | --- |
| C=CC1CN2CCC1CC2C(O)c1cc(CCC(C)C2CCC3C4C(OC(C)=O)CC5CC(OC(C)=O)CCC5(C)C4CCC23C)nc2ccccc12 (stereo not drawn) [Hybrid 4f] | in the same range as the commercial drug suramin |
| C=CC1CN2CCC1CC2C(O)c1cc(CCC(C)C2CCC3C4C(O)CC5CC(O)CCC5(C)C4CCC23C)nc2ccccc12 (stereo not drawn) [Hybrid 5f] | in the same range as the commercial drug suramin |
| C=CC1CN2CCC1CC2C(O)c1cc(CCC(C)C2CCC3C4C(O)CC5CC(O)CCC5(C)C4CCC23C)nc2ccccc12 (stereo not drawn) [Hybrid 5h] | in the same range as the commercial drug suramin |
